Source: patent US20220023317A1, “PREVENTING OR MITIGATING CHEMOTHERAPY INDUCED ALOPECIA USING VITAMIN D” (Berg LLC, priority 2013, published 2022)
Like-named read-outs stand apart in the source and are kept apart here.

How the values were obtained:
[1] = system: HepG2; test: Cell growth / viability assay; assay type: cell-based
[2] = system: Long Evans Rats; test: Alopecia in chloroleukemic Long Evans rats receiving multi-course chemotherapy; assay type: in vivo, rat; settings: for extent of alopecia (grade): all rats
Description: Animals were then randomized in four groups.
Treatments were started on day 6 after birth.
Unused preparations were disposed of.

[3] = system: Sprague-Dawley or Long Evans rats; test: Second CIA study, calcitriol 1, 2 or 3 μg/mL; assay type: in vivo, rat
Method: CIA was administered topically at concentrations of 1, 2, or 3 μg/mL on Days 5 to 10 followed by administration of various chemotherapeutic agents (etoposide; cyclophosphamide; doxorubicin and cyclophosphamide; cytosine beta-D arabinofurosamine; cytosine beta-D arabinofurosamine and doxorubicin; and paclitaxel).

[4] = system: Long Evans and Sprague Dawley rats
Method: Specifically, Long Evans and Sprague Dawley rats with pups were purchased from Harlan Laboratories, Inc. They were housed and fed according to applicable animal handling rules and regulations. Pups were allowed to acclimate for 48 hours prior to the start of experiments. […] Rats were isolated from their littermates and mother for 6-hour periods of time. Subsequently, the treated area was cleaned with soap and water and pups were returned to their litters. On day 13, rats either received etoposide (1.5 mg/kg daily for 3 days) or cyclophosphamide (CTX) (37.5 mg/kg once) or combination cyclophosphamide (35 mg/kg once) and doxorubicin (2.5 mg/kg daily for 3 days). All chemotherapies were purchased from Sigma and were given intraperitoneally (i.p.) in a total volume of 0.1 mL. Alopecia was recorded 10 days after the last dose of chemotherapy.

[5] = system: PaCa2; test: Cell growth / viability assay; assay type: cell-based
[6] = system: HEKa cells; test: Real-time PCR Heat Shock Protein array, calcitriol-treated HEKa; assay type: cell-based, human; settings: 0.1 μg/mL calcitriol, two independent experiments
Method: Changes in mRNA levels were evaluated using real-time PCR quantification to assess mRNA levels in preselected subsets containing 80 pathway specific targets (see Appendix). The PCR array analysis utilized two groups of genes—those related to Heat Shock Proteins (SABiosciences), and those related to Neuroscience Ion Channels and Transporters (SABioscience). Cell culture: Primary human epidermal keratinocytes (HEKa) were maintained in Epilife Medium (Cascade Biologics, Inc., Portland Oreg.) along with Human Keratinocyte Growth Supplement (Cascade Biologics, Inc., Portland Oreg.). […] D3 treatment of HEKa cells: […] Vehicle control group of cells were treated with 5 mL media containing 1 μL of ethanol. Cells were harvested 3, 6, 16, 24, 48, or 72 hours after the start of the treatment. RNA isolation: Cells were lysed for RNA isolation at different treatment times using the RNeasy Mini kit (Qiagen, Inc., Valencia Calif.) following the manufacturer's instructions. RNA was quantified by measuring optical density at 260 nm. First Strand Synthesis: […] Real-time PCR: Products from the first strand synthesis were diluted with water, mixed with the SYBR green master mix (SABiosciences., Frederick Md.) and loaded onto PCR arrays. Real time PCR was run on the PCR Arrays (Heat Shock Protein Arrays, and Neuroscience and Ion Channel Arrays) (SABiosciences, Frederick Md.) on a Biorad CFX96. Data analyses were performed using the PCR array data analysis software available on the SABiosciences website.

[7] = system: NCI-ES-0808; test: Cell growth / viability assay; assay type: cell-based
[8] = system: HEKa cells; test: 2-D gel electrophoresis proteomic analysis of calcitriol-treated HEKa; assay type: cell-based, human; settings: 0.1 μg/mL
Method: The cell pellets were then analyzed using proteomic methods, such as 2-D gel and Western blot analysis. […] In all, analysis of about 458 protein spots in the comparative study was performed, comparing the control sample against the 3-, 6-, and 24-hour treatment samples. Six spots showing statistically significant differential changes were identified. These spots were excised, and their protein contents subjected to sequence identification by trypsin digestion and mass spectrometry characterization.

[9] = system: SkBr-3; test: Cell growth / viability assay; assay type: cell-based
[10] = system: guinea pigs; test: Skin sensitization study; assay type: in vivo, guinea pig; settings: calcitriol at 5.7 μg/g, topical patch induction and challenge
Method: Induction phase. […] The induction exposure was repeated at the same skin site once a week for 2 weeks. The vehicle and positive control groups composed of 5 male and 5 female guinea pigs, each of which were exposed in the same manner as the treatment group to propylene glycol/anhydrous ethanol or hexylcinnamic aldehyde (a known mild to moderate skin-sensitizer), respectively. Skin reactions were scored and recorded at approximately 24 hours after patch removal during the induction phase. After the last induction exposure, the animals remained untreated for two weeks before the challenge exposure.
Challenge phase. The challenge exposure was conducted two weeks after the final topical induction. The test article was topically applied to the Vehicle Control and Test Group at the concentration determined to be non-irritating in the irritation screen. The Vehicle Control Group was also challenged with the Vehicle. The Positive Control Groups received the positive control article. The challenge application sites were scored at approximately 24 and 48 hours after patch removal.

[11] = 0.1 μg/mL calcitriol for two passages
[12] = 0.1 μg/mL calcitriol supplement

C=C1/C(=C\C=C2/CCC[C@]3(C)[C@@H]([C@H](C)CCCC(C)(C)O)CC[C@@H]23)C[C@@H](O)C[C@@H]1O [Calcitriol, (1a.3B.5Z.7E)-9,10-secocholesta-5,7,10(19)-triene-1,3,25-triol]
effect of calcitriol on cytotoxic effect of Doxorubicin [1]: did not appear to appreciably alter
response to doxorubicin, cisplatin, erlotinib after calcitriol exposure [1, 11]: did not alter
5-FU ED50 curve with vs without calcitriol [1, 12]: not significantly different
concentrations giving growth inhibition ([1]; high concentrations): > 0.5 µg/mL
concentrations giving growth stimulation ([1]; low concentrations): 0.05 to 0.25 µg/mL
extent of alopecia (grade) ([2]; ADM + paclitaxel + etoposide, first round): did not exhibit any signs of alopecia
rats with alopecia grade 0 (number) ([2]; ADM + paclitaxel + etoposide, second round, topical calcitriol, of 32): 32
extent of alopecia (grade) ([2]; CTX + ADM + ARA-C, first round): did not exhibit any signs of alopecia
rats with alopecia grade 0 (number) ([2]; CTX + ADM + ARA-C, second round, topical calcitriol, of 31): 31
rats with alopecia grade 0 (number) ([2]; CTX + ADM + cytarabine (ARA-C), first round, topical calcitriol 2 μg/mL, of 40): 40
extent of alopecia (grade) ([2]; CTX + ADM, first round): did not exhibit any signs of alopecia
rats with alopecia grade 0 (number) ([2]; CTX + ADM, second round, topical calcitriol, of 20): 20
rats with alopecia grade 0 (number) ([2]; CTX + doxorubicin (ADM), first round, topical calcitriol 2 μg/mL, of 40): 40
extent of alopecia (grade) ([2]; CTX + paclitaxel + etoposide, first round): did not exhibit any signs of alopecia
rats with alopecia grade 0 (number) ([2]; CTX + paclitaxel + etoposide, first round, topical calcitriol 2 μg/mL, of 40): 40
rats with alopecia grade 0 (number) ([2]; CTX + paclitaxel + etoposide, second round, topical calcitriol, of 33): 33
extent of alopecia (grade) ([2]; CTX, first round of chemotherapy): did not exhibit any signs of alopecia
rats with alopecia grade 0 (number) ([2]; CTX, first round of chemotherapy, topical calcitriol 2 μg/mL 0.1 mL daily x6, 0 = no alopecia, of 40): 40
rats with alopecia grade 0 (number) ([2]; CTX, second round of chemotherapy, topical calcitriol days 40-45, of 10): 10
rats with alopecia grade 0 (number) ([2]; Doxorubicin (ADM) + paclitaxel + etoposide, first round, topical calcitriol 2 μg/mL, of 40): 40
protection from CIA ([2]; calcitriol 2 μg/mL, each of five chemotherapy regimens, first and second cycles): 100%
protection from CIA ([2]; cyclophosphamide and doxorubicin group, both cycles): 100%
protection from CIA ([2]; cyclophosphamide group, both cycles): 100%
protection from CIA ([2]; cyclophosphamide, doxorubicin and cytarabine group, both cycles): 100%
protection from CIA ([2]; cyclophosphamide, paclitaxel and etoposide group, both cycles): 100%
protection from CIA ([2]; doxorubicin, paclitaxel and etoposide group, both cycles): 100%
extent of hair growth ([3]; 1 μg/mL): hair growth was limited to the treated area
extent of hair growth ([3]; 3 μg/mL): hair growth was also observed on the dorsal region
protection against CIA ([3]; 1 to 3 μg/mL applied for 6 hours, all chemotherapeutic agents tested): 100%
effect on cure rate with cyclophosphamide ([3]; chloroleukemia induced with MIAC51): did not affect the cure rate
protection from CIA, 6-hour exposure ([3]; topical, Days 5 to 10): complete protection
protection from CIA, 1.5 hour exposure ([3]; topical, Days 5 to 10): no protection
protection from etoposide-induced alopecia ([4]; 0.1 μg of calcitriol topical for 6 hours, daily x6, etoposide 1.5 mg/kg x3): partial localized protection
protection from cyclophosphamide-induced alopecia ([4]; 0.3 μg calcitriol topical): full body protection
protection from etoposide-induced alopecia ([4]; 0.3 μg calcitriol topical): total body protection
effect of calcitriol on cell growth [5]: no significant growth promoting or growth inhibiting effects
effect of calcitriol on cytotoxic effect of Doxorubicin [5]: did not appear to appreciably alter
response to doxorubicin, cisplatin, erlotinib after calcitriol exposure [5, 11]: did not alter
5-FU ED50 curve with vs without calcitriol [5, 12]: not significantly different
DNAJC6 mRNA regulation pattern [6]: Downregulated
HSF4 mRNA regulation pattern [6]: Upregulated at 48 hours
HSPA2 mRNA regulation pattern [6]: Upregulated at 48 hours
HSPB1 mRNA regulation pattern [6]: Down regulated at 48 hours
effect of calcitriol on cell growth [7]: no significant growth promoting or growth inhibiting effects
effect of calcitriol on cytotoxic effect of Doxorubicin [7]: did not appear to appreciably alter
S100 A9 (Calprotectin) Response ([8]; full cell: down at 6 and 24 hours): down at 6
Keratin 17 Response ([8]; full cell: down at 24 hours): down at
Glutathione S-transferase (GST) Response ([8]; full cell: up at 3, 6, and 24 hours): up at 3, 6,
effect of calcitriol on cell growth [9]: no significant growth promoting or growth inhibiting effects
effect of calcitriol on cytotoxic effect of Doxorubicin [9]: did not appear to appreciably alter
skin sensitization [10]: not determined to be a sensitizer
